Test results reported in patent US10233184B2, “7-substituted sulfonimidoylpurinone compounds and derivatives for the treatment and prophylaxis of virus infection” (Hoffmann-La Roche Inc., priority 2016, dated 2019).
In brackets after ≈: the same amount, converted by molar mass. Read-outs that look alike come from different tables or passages of the source.

How the values were obtained:
human TLR7 = molecular target: T1, human TLR7 (Homo sapiens, UniProt Q9NYK1); test: HEK293-Blue-hTLR-7 cells assay (SEAP reporter); type: cell-based; conditions: for EC50: HEK293-Blue-hTLR-7 cells, SEAP reporter, 20 hrs; for Ratio (EC50(prodrug)/EC50(active form)): EC50 of prodrug over EC50 of corresponding active form
T1 sequence (Q9NYK1 27-1049): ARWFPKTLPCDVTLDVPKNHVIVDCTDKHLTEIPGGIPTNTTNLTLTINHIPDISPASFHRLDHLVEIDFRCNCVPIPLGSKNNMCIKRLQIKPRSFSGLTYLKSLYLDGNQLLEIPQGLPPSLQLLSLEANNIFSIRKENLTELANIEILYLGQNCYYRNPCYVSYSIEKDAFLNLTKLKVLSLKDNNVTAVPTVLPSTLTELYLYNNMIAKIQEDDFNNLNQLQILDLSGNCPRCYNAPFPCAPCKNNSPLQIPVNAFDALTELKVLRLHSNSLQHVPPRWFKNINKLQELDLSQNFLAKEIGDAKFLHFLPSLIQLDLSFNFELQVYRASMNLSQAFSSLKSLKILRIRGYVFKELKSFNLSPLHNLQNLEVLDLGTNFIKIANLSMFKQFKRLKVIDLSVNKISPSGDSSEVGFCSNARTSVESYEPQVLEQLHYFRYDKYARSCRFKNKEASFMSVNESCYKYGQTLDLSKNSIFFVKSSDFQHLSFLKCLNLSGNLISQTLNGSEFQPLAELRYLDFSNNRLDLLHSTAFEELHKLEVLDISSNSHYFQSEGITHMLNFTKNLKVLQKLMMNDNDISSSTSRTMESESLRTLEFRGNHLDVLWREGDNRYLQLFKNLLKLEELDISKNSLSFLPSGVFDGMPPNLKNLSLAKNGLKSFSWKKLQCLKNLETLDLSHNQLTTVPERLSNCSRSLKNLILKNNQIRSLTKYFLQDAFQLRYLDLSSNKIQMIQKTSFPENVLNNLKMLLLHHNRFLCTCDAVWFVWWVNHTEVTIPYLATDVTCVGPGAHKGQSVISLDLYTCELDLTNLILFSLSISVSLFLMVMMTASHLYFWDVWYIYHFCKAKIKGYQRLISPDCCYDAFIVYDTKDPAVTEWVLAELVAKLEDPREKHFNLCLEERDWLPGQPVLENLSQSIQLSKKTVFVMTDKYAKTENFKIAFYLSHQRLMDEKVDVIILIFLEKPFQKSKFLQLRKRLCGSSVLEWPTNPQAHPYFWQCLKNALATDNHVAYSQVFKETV
Text: HEK293-Blue-hTLR-7 Cells Assay:
A stable HEK293-Blue-hTLR-7 cell line was purchased from InvivoGen (Cat.#: hkb-htlr7, San Diego, Calif., USA). These cells were designed for studying the stimulation of human TLR7 by monitoring the activation of NF-κB. A SEAP (secreted embryonic alkaline phosphatase) reporter gene was placed under the control of the IFN-β minimal promoter fused to five NF-κB and AP-1-binding sites. The SEAP was induced by activating NF-κB and AP-1 via stimulating HEK-Blue hTLR7 cells with TLR7 ligands. Therefore the reporter expression was regulated by the NF-κB promoter upon stimulation of human TLR7 for 20 hrs. The cell culture supernatant SEAP reporter activity was determined using QUANTI-Blue™ kit (Cat.#: rep-qbl, Invivogen, San Diego, Calif., USA) at a wavelength of 640 nm, a detection medium that turns purple or blue in the presence of alkaline phosphatase.
HEK293-Blue-hTLR7 cells were incubated at a density of 250,000˜450,000 cells/mL in a volume of 180 μL in a 96-well plate in Dulbecco's Modified Eagle's medium (DMEM) containing 4.5 g/L glucose, 50 U/mL penicillin, […], […], 2 mM L-glutamine, 10% (V/V) heat-inactivated fetal bovine serum for 24 hrs. Then the HEK293-Blue-hTLR-7 cells were incubated with addition of 20 μL test compound in a serial dilution in the presence of final DMSO at 1% and perform incubation under 37° C. in a CO2 incubator for 20 hrs. Then 20 μL of the supernatant from each well was incubated with 180 μL Quanti-blue substrate solution at 37° C. for 2 hrs and the absorbance was read at 620˜655 nm using a spectrophotometer. The signalling pathway that TLR7 activation leads to downstream NF-κB activation has been widely accepted, and therefore similar reporter assay was also widely used for evaluating TLR7 agonist (Tsuneyasu Kaisho and Takashi Tanaka, Trends in Immunology, Volume 29, Issue 7, July 2008, […]; Hiroaki Hemmi et al, Nature Immunology 3, 196-200 (2002)).
The Compounds and Examples of the present invention were tested in HEK293-hTLR-7 assay for their TLR7 agonism activity as described herein and results are listed in Table 1. […] The calculated ratio of EC50(prodrug)/EC50(active form) were within the range from 32 to about 7600.

LYSA solubility study = type: physicochemical; conditions: for solubility thermodynamic: phosphate buffer, pH 6.5, aqueous buffer, thermodynamic from solid; for LYSA of Prodrugs: aqueous solubility, 0.05M phosphate buffer pH 6.5
Experimental: LYSA study is used to determine the aqueous solubility of tested compounds. Samples were prepared in duplicate from 10 mM DMSO stock solution. After evaporation of DMSO with a centrifugal vacuum evaporator, the compounds were dissolved in 0.05M phosphate buffer (pH 6.5), stirred for one hour and shaken for two hours. After one night, the solutions were filtered using a microtiter filter plate. Then the filtrate and its 1/10 dilution were analyzed by HPLC-UV. […] The results were in μg/mL. In case the percentage of sample measured in solution after evaporation divided by the calculated maximum of sample amount was bigger than 80%, the solubility was reported as bigger than this value.

[1] = prodrug, read-out: HEK293-hTLR-7 EC50 (Prodrug)
[2] = 0.05M phosphate buffer pH 6.5, read-out: LYSA of Prodrugs

Compound	EC50 (human TLR7; active form, read-out: HEK293-hTLR-7 EC50 (Active form))	solubility thermodynamic (LYSA solubility study; 0.05M phosphate buffer pH 6.5, read-out: LYSA of Active Forms)	Ratio (EC50(prodrug)/EC50(active form)) (human TLR7)	EC50 (human TLR7; [1])	solubility thermodynamic (LYSA solubility study; [2])	LYSA of Prodrugs (LYSA solubility study)
CC[S@](=N)(=O)c1nc(N)c2[nH]c(=O)n(Cc3ccc(C)cc3)c2n1 (single isomer, unassigned) [Compound 43e-B]	0.035 µM	0.013 mg/mL (≈ 37.5 µM)				
CCCN(C)C(=O)n1c(=O)n(Cc2ccc(C)cc2)c2nc([S@@](=N)(=O)CC)nc(N)c21 (single isomer, unassigned) [Example 43-B]			2240	78.4 µM	0.17 mg/mL (≈ 382 µM)	
CCCN(C)C(=O)n1c(=O)n(Cc2ccc(F)cc2)c2nc(S(=N)(=O)CC)nc(N)c21 (single isomer, unassigned) [Example 45-A]				153 µM	> 0.56 mg/mL	
CCCN(C)C(=O)n1c(=O)n(Cc2ccc(F)cc2)c2nc([S@@](=N)(=O)CC)nc(N)c21 (single isomer, unassigned) [Example 45-B]				> 1000 µM	0.42 mg/mL (≈ 934 µM)	
CCN(C)C(=O)n1c(=O)n(Cc2ccc(F)cc2)c2nc(S(=N)(=O)CC)nc(N)c21 (single isomer, unassigned) [Example 46-A]				45.5 µM		205 µg/mL
CCN(C)C(=O)n1c(=O)n(Cc2ccc(F)cc2)c2nc(S(=N)(=O)CC)nc(N)c21 (single isomer, unassigned) [Example 46-B]				45.7 µM		>580 µg/mL
CCN(C)C(=O)n1c(=O)n(Cc2ccc(Br)cc2)c2nc(S(=N)(=O)CC)nc(N)c21 (single isomer, unassigned) [Example 48-A]				18.3 µM	0.305 mg/mL (≈ 614 µM)	
CCN(C)C(=O)n1c(=O)n(Cc2ccc(Br)cc2)c2nc(S(=N)(=O)CC)nc(N)c21 (single isomer, unassigned) [Example 48-B]				20.8 µM		275 µg/mL
CCN(C)C(=O)n1c(=O)n(Cc2ccc(Cl)cc2)c2nc([S@@](=N)(=O)CC)nc(N)c21 (stereo in doubt) [Example 42-B, 6-Amino-9-[(4-chlorophenyl)methyl]-N-ethyl-2-[S(R)-ethylsulfonimidoyl]-N-methyl-8-oxo-purine-7-carboxamide]			578.8	49.2 µM		335 µg/mL
CCCS(=N)(=O)c1nc(N)c2c(n1)n(Cc1ccccc1)c(=O)n2C(=O)N1CCC(N2CCCCC2)CC1 (stereo not drawn) [Example 4, 6-Amino-9-benzyl-7-[4-(1-piperidyl)piperidine-1-carbonyl]-2-(propylsulfonimidoyl)purin-8-one]			353.8	23 µM	0.695 mg/mL (≈ 1290 µM)	

Continued, values first:

EC50 (human TLR7; active form, read-out: HEK293-hTLR-7 EC50 (Active form))	solubility thermodynamic (LYSA solubility study; 0.05M phosphate buffer pH 6.5, read-out: LYSA of Active Forms)	Ratio (EC50(prodrug)/EC50(active form)) (human TLR7)	EC50 (human TLR7; [1])	solubility thermodynamic (LYSA solubility study; [2])	LYSA of Prodrugs (LYSA solubility study)	Compound
		634.3	42.5 µM	0.315 mg/mL (≈ 707 µM)		CCCN(C)C(=O)n1c(=O)n(Cc2ccccc2)c2nc(S(=N)(=O)CCC)nc(N)c21 (single isomer, unassigned) [Example 1-A]
		43.0	3.7 µM	> 0.6 mg/mL		CCCS(=N)(=O)c1nc(N)c2c(n1)n(Cc1ccccc1)c(=O)n2C(=O)N(C)CCOC (single isomer, unassigned) [Example 2-A]
		65.7	4.4 µM		>590 µg/mL	CCCS(=N)(=O)c1nc(N)c2c(n1)n(Cc1ccccc1)c(=O)n2C(=O)N(C)CCOC (single isomer, unassigned) [Example 2-B]
			13.1 µM	0.128 mg/mL (≈ 251 µM)		CCCN(C)C(=O)n1c(=O)n(Cc2ccc(Br)cc2)c2nc([S@@](=N)(=O)CC)nc(N)c21 (single isomer, unassigned) [Example 47-B]
		775.4	50.4 µM	0.29 mg/mL (≈ 651 µM)		CCCN(C)C(=O)n1c(=O)n(Cc2ccccc2)c2nc(S(=N)(=O)CCC)nc(N)c21 (stereo not drawn) [Example 1, 6-Amino-9-benzyl-N-methyl-8-oxo-N-propyl-2-(propylsulfonimidoyl)purine-7-carboxamide]
		372.1	32 µM	0.615 mg/mL (≈ 1330 µM)		CCCS(=N)(=O)c1nc(N)c2c(n1)n(Cc1ccccc1)c(=O)n2C(=O)N(C)CCOC (stereo not drawn) [Example 2, 6-Amino-9-benzyl-N-(2-methoxyethyl)-N-methyl-8-oxo-2-(propylsulfonimidoyl)purine-7-carboxamide]
			15.1 µM	0.24 mg/mL (≈ 522 µM)		CCCN(CC)C(=O)n1c(=O)n(Cc2ccccc2)c2nc(S(=N)(=O)CCC)nc(N)c21 (stereo not drawn) [Example 3, 6-Amino-9-benzyl-N-ethyl-8-oxo-N-propyl-2-(propylsulfonimidoyl)purine-7-carboxamide]
		630.8	41 µM	> 0.595 mg/mL		CCCS(=N)(=O)c1nc(N)c2c(n1)n(Cc1ccccc1)c(=O)n2C(=O)N(CC)CCOC (stereo not drawn) [Example 5, 6-Amino-9-benzyl-N-ethyl-N-(2-methoxyethyl)-8-oxo-2-(propylsulfonimidoyl)purine-7-carboxamide]
		1266.2	82.3 µM	0.14 mg/mL (≈ 296 µM)		CCCCN(CC)C(=O)n1c(=O)n(Cc2ccccc2)c2nc(S(=N)(=O)CCC)nc(N)c21 (stereo not drawn) [Example 6, 6-Amino-9-benzyl-N-butyl-N-ethyl-8-oxo-2-(propylsulfonimidoyl)purine-7-carboxamide]
		306.2	19.9 µM	0.615 mg/mL (≈ 1260 µM)		CCCN(CCOC)C(=O)n1c(=O)n(Cc2ccccc2)c2nc(S(=N)(=O)CCC)nc(N)c21 (stereo not drawn) [Example 7, 6-Amino-9-benzyl-N-(2-methoxyethyl)-8-oxo-N-propyl-2-(propylsulfonimidoyl)purine-7-carboxamide]
		32.3	2.1 µM	0.62 mg/mL (≈ 1230 µM)		CCCS(=N)(=O)c1nc(N)c2c(n1)n(Cc1ccccc1)c(=O)n2C(=O)N(CCOC)CCOC (stereo not drawn) [Example 8, 6-Amino-9-benzyl-N,N-bis(2-methoxyethyl)-8-oxo-2-(propylsulfonimidoyl)purine-7-carboxamide]
		295.4	19.2 µM	> 0.52 mg/mL		CCCS(=N)(=O)c1nc(N)c2c(n1)n(Cc1ccccc1)c(=O)n2C(=O)N1CCC1 (stereo not drawn) [Example 9, 6-Amino-7-(azetidine-1-carbonyl)-9-benzyl-2-(propylsulfonimidoyl)purin-8-one]
